In US20130064812A1, “COMBINATION THERAPIES FOR HEMATOLOGIC MALIGNANCIES” (Gilead Calistoga LLC, priority 2011, published 2013):

Experiments:
[1] = target: PIP5Kα (Homo sapiens, UniProt Q99755); assay: InvitroGen Adapta kinase assay, PIP5Kα; format: biochemical; conditions: Other Phosphoinositide kinases; head prints no unit
[2] = tested on: over 350 protein kinases; assay: Ambit KINOMEscan kinome-wide protein kinase screen; format: binding; conditions: 10 μM, over 350 protein kinases (over 300)
Excerpt: Examples of some kinases in the screen are shown below in Table 3.

[3] = tested on: LB cells; assay: MM cell growth with IGF-1 or IL-6 (MTT); format: cell-based, human; conditions: 0.625 μM-[…], 48 h, with IL-6 or IGF-1
Procedure: LB cells ([…]) were cultured for 48 h with control media; with the compound of formula I, in the presence or absence of either IL-6 or IGF-1. […] Chemicon International) dye absorbance. Cells were pulsed with 10 μL of 5 mg/mL MTT to each well for the last 4 hours of 48-hour cultures, followed by 100 μL isopropanol containing 0.04 N HCl.

[4] = tested on: T-ALL and B-ALL leukemic cell lines; assay: ALL cell lines: AlamarBlue viability and Akt phosphorylation; format: cell-based; conditions: for cellular viability in ALL cell lines: 48 hours
Procedure: Viability assays of cell lines were performed using the AlamarBlue assay (Invitrogen). Cells (1×10^6 per well) in a volume of 100 μL were placed in a 96-well flat-bottom plate and the compound of formula I (100 μL per well at 2× final concentration) or medium alone was added to the plates. All were performed in quadruplicate. Cells were incubated for fixed times (48 hours). After the incubation, 10 μL AlamarBlue® was added to each well. Cells were incubated for 4 hours and the optical density at 530-560 nm was obtained using a SpectraMax® M5 plate reader 2001. Cell viability was expressed as a percentage of absorption between treated cells/control sample.

[5] = tested on: CLL; assay: ALC and lymphadenopathy in a patient with CLL; format: in vivo, human; conditions: 1 cycle (28 days) oral
Procedure: This example provides data relating to the concentration of absolute lymphocyte count (ALC) in the blood of a patient with CLL after 1 cycle (28 days) of treatment with oral administration of the compound of formula I. The blood ALC concentration was measured over a period of 4 weeks after completion of one cycle of treatment. A 55% decrease in lymphocytosis and a 38% decrease in lymphadenopathy as a result of treatment were observed. A marked decrease in ALC concentration is observed between week 1 and week 2, FIG. 13.

[6] = tested on: INA-6 cells; assay: Cleavage of caspases and PARP in INA-6 cells (western blot); format: cell-based, human; conditions: INA-6, 0-5 μM, 120 h
Excerpt: Whole-cell lysates were subjected to sodium dodecyl sulfate-polyacrylamide gel electrophoresis (SDS-PAGE) separation, transferred to Pure Nitrocellulose membranes (Bio-Rad Laboratories, Hercules, Calif.), and immunoblotted with anti-AKT, phospho(p)-AKT (Ser473, Thr 308), ERK1/2, P-ERK1/2, P-PDK1, STAT, P-STAT, P-FKRHL, P-70S6K, LC3, and PI3K/p110α Abs (Cell Signaling Danvers, Mass.); anti-p110β, PI3K/p110δ, Glyceraldehyde 3-phosphate dehydrogenase (GAPDH), α-tubulin, and actin Abs (Santa Cruz Biotechnology, CA); and anti-p110γ Ab (Alexis, San Diego, Calif.): and anti-LC3 Ab (Abgent, San Diego, Calif.).
Total cell lysates were subjected to immunoblotting using anti-caspase-3, -8, -9, PARP, and α-tubulin Abs. FL indicates full-length protein, and CL indicates cleaved protein.

[7] = tested on: INA-6 and LB MM cells; assay: Autophagy / AVO development in MM cells; format: cell-based, human
Procedure: To detect and quantify AVOs in compound 1 or 3MA-treated cells, vital staining was performed for 15 min with acridine orange at a final concentration of 1 μg/ml. Samples were examined under a fluorescence microscope.
Autophagosome formation was defined by the accumulation of LC3; arrows indicate autophagosomes, FIG. 33A.
GAPDH served as a loading control.

[8] = tested on: CLL cells on stromaNKTert; assay: Calcein-based adhesion assay of CLL cells on stroma; format: cell-based, human
Procedure: a confluent monolayer of CD154+L or StromaNKTert cells was generated by plating 1×10^4 cells/well in 96-well plates for 24 hours. Single cell suspensions of CLL cells at 0.5×10^6 cells/ml were then labeled with 1 μg/mL Calcein-AM (Invitrogen) for 1 hour. Cells were then spun down and treated with compound or vehicle for 1 to 24 hours. Non-adherent cells were washed off by aspiration. CLL cell adhesion was quantified by fluorimetry (Ex/Em=485/520 nm), and visualized directly using the Nikon TE2000 inverted live-cell imaging system.

[9] = tested on: MM cell lines
[10] = tested on: AKT (ser473), GSK3β (ser9); assay: AKT and GSK3β phosphorylation in CD19+ CLL cells with lenalidomide (immunoblot); conditions: 0.5 μM lenalidomide and/or 1 or 10 μM compound, 48 hours
Procedure: Immunoblots were performed.
AKT phosphorylation at ser473 was assessed by immunoblot.
GSK3β phosphorylation at ser9 was assessed by immunoblot. Results are shown from one of four experiments.
CD19+ cells from CLL patients (N=3) were transfected with siRNA targeted to PI3K-δ, PI3K-γ or a nonsense and then incubated with or without 0.5 μM lenalidomide for 48 hours. AKT phosphorylation at ser473 was assessed by immunoblot. Results are shown from one of three experiments.

Chain of PIP5Kα (Q99755 whole entry): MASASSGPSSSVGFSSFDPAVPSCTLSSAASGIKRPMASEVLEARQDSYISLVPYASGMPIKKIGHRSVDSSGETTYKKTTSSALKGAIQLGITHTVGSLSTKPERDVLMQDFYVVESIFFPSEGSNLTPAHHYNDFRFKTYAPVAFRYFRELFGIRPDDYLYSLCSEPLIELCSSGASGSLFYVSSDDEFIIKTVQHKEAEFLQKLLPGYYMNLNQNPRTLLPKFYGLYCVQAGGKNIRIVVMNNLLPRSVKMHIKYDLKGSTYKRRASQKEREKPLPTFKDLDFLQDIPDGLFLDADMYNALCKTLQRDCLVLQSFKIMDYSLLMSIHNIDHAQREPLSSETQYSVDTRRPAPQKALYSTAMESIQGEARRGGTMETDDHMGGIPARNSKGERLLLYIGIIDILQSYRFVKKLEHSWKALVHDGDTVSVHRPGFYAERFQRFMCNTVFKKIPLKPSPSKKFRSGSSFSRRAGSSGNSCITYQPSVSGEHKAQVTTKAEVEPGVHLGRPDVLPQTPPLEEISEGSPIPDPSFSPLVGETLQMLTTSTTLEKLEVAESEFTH

## CC[C@H](Nc1ncnc2[nH]cnc12)c1nc2cccc(F)c2c(=O)n1-c1ccccc1 [Compound I, 5-fluoro-3-phenyl-2-[1-(9H-purin-6-ylamino)-propyl]-3H-quinazolin-4-one]
[1]
  IC50: > 1000 nM
[2]
  activity in kinome-wide protein kinase screen: failed to detect any activity
[2]; listed as compound of formula I
  activity in kinome-wide protein kinase screen: little activity
[3]
  MM cell growth: inhibits MM cell growth even in the presence of cell growth stimulatory cytokines
[4]
  Akt phosphorylation in ALL cell lines: reduction in Akt phosphorylation
  cellular viability in ALL cell lines: significant reduction in cell viability in all six cell lines
[4]; listed as compound I
  cellular viability in ALL cell lines: substantial reduction in cellular viability
[5]
  decrease in lymphadenopathy: 38%
  decrease in lymphocytosis: 55%
[6]
  cleavage of caspases and PARP: Significantly increased cleavage of caspase-8, caspase-9, caspase-3, and PARP
[7]; 5 μM, 6 h, INA-6 and LB
  LC3 staining: markedly increased LC 3 staining
[7]; INA-6, 6 h
  LC3-II and Beclin1 protein: markedly increased LC3-II and Beclin1 protein
[7]; acridine orange staining, LB and INA-6
  acidic vesicular organelle (AVO) development: development of AVOs
[8]
  CLL cell adherence to stroma at one hour: reduced adherence of CLL cells was detectable
[8]; 10 μM
  CLL cell adherence to stroma at 24 hours: exhibited less adherent at 24 hours
[9]
  cytotoxicity against p110δ-positive MM cells: induced cytotoxicity against LB and INA-6 mM cells (p110δ-positive) in a dose- and time-dependent fashion
  cytotoxicity in p110δ-negative cell lines: minimal cytotoxicity
[10]
  AKT activation / phosphorylation (ser473) with lenalidomide: resulted in prevention of PI3K activity
[10]; N=4
  GSK3β phosphorylation (ser9): preventable by co-treatment with the compound of formula I
